In patent US7326788B2, “Quinolinone derivatives as inhibitors of c-fms kinase” (Janssen Pharmaceutica N.V., priority 2003, dated 2008):

Molecular target: T1, c-fms (Homo sapiens, UniProt P07333)
T1 construct: 3DP
Test: c-fms autophosphorylation, fluorescence polarization competition immunoassay
Format: biochemical
Conditions: 10 nM c-fms, 1 mM ATP, 5 mM MgCl2, 2% DMSO; averages of three independent measurements
Description: The assay was performed in black 96-well microplates (LJL BioSystems). The assay buffer used was 100 mM HEPES, pH 7.5, 1 mM DTT, 0.01% (v/v) Tween-20. Compounds were diluted in assay buffer containing 4% DMSO just prior to the assay. […] The kinase reaction was initiated by adding 2 μL of 5 mM ATP (Sigma) in assay buffer. The final concentrations in the assay were 10 nM c-fms, 1 mM ATP, 5 mM MgCl2, 2% DMSO. Control reactions were ran in each plate: in positive and negative control wells, assay buffer (made 4% in DMSO) was substituted for the compound; in addition, positive control wells received 1.2 μL of 50 mM EDTA.
The plates were incubated at room temperature for 45 min. At the end of the incubation, the reaction was quenched with 1.2 μL of 50 mM EDTA (EDTA was not added to the positive control wells at this point; see above). Following a 5-min incubation, each well received 10 μL of a 1:1:3 mixture of anti-phosphotyrosine antibody, 10X, PTK green tracer, 10X (vortexed), FP dilution buffer, respectively (all from PanVera, cat. #P2837). The plate was covered, incubated for 30 min at room temperature and the fluorescence polarization was read on the Analyst. The instrument settings were: 485 nm excitation filter; 530 nm emission filter; Z height: middle of well; G factor: 0.93. […] The reported IC50 values are averages of three independent measurements.

T1 sequence (P07333 20-972): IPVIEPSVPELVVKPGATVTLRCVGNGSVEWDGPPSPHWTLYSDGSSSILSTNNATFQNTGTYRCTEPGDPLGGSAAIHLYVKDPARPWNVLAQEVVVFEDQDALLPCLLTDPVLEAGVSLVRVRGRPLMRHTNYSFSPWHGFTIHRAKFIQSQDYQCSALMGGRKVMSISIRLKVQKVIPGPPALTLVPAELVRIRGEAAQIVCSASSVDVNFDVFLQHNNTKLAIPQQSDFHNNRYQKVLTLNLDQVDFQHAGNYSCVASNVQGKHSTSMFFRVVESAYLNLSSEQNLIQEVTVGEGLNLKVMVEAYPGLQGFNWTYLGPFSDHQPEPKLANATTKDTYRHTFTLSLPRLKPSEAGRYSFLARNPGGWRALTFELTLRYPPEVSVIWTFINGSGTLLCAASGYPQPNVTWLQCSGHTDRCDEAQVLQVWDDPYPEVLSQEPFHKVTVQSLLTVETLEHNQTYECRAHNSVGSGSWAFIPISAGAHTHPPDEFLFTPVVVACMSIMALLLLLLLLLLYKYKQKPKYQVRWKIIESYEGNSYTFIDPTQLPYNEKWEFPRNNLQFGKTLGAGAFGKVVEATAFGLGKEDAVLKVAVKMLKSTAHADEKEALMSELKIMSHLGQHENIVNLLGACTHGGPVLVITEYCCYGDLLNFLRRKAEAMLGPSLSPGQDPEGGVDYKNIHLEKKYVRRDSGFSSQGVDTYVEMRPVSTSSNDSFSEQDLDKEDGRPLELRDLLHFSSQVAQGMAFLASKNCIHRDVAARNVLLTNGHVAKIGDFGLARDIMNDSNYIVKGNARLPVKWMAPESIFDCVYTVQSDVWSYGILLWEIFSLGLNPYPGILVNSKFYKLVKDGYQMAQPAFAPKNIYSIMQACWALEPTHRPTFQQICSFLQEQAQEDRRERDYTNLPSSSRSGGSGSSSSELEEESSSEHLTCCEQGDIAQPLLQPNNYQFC

SMILES | IC50
Cc1cc(-c2c(-c3ccccc3)c3cc(Br)ccc3[nH]c2=O)on1 | < 500 nM
CCc1ccc(-c2c(-c3cnc[nH]3)c(=O)[nH]c3ccc(C#N)cc23)cc1 | < 500 nM
CCc1ccc(-c2c(-c3cc(C)no3)c(=O)[nH]c3ccc(C#N)cc23)cc1 | < 500 nM
Cc1cc(-c2c(-c3ccc(C(C)C)cc3)c3cc(C#N)ccc3[nH]c2=O)on1 | < 500 nM
C=Cc1ccc(-c2c(-c3cc(C)no3)c(=O)[nH]c3ccc(C#N)cc23)cc1 | < 500 nM
Cc1cc(-c2c(C3=CCCCCC3)c3cc(C#N)ccc3[nH]c2=O)on1 | < 500 nM
CC(C)(C)c1cc(-c2c(-c3ccccc3)c3cc(Cl)ccc3[nH]c2=O)on1 | < 500 nM
Cc1cc(-c2c(-c3cccc(O)c3)c3cc(Cl)ccc3[nH]c2=O)on1 | < 500 nM
Cc1cc(-c2c(-c3ccccc3F)c3cc(Cl)ccc3[nH]c2=O)on1 | < 500 nM
O=C(O)c1cc(-c2c(-c3ccccc3)c3cc(Cl)ccc3[nH]c2=O)on1 | < 500 nM
Cc1cc(-c2c(-c3cccs3)c3cc(Cl)ccc3[nH]c2=O)on1 | < 500 nM
Cc1cc(-c2c(N3CCCCC3)c3cc(Cl)ccc3[nH]c2=O)on1 | < 500 nM
O=c1[nH]c2ccc(Br)cc2c(-c2ccccc2)c1-c1cnc[nH]1 | < 500 nM
Cc1cc(-c2c(-c3cc4ccccc4s3)c3cc(Cl)ccc3[nH]c2=O)on1 | 500 to 1000 nM
Cc1cc(-c2c(N3CCC(C)(C)CC3)c3cc(Cl)ccc3[nH]c2=O)on1 | 500 to 1000 nM
Cc1cc(-c2c(-c3ccc(OC(F)(F)F)cc3)c3cc(C#N)ccc3[nH]c2=O)on1 | 500 to 1000 nM
COc1cccc(-c2c(-c3cc(C)no3)c(=O)[nH]c3ccc(Cl)cc23)c1 | 500 to 1000 nM
O=c1[nH]c2ccc(Cl)cc2c(-c2ccccc2)c1-c1cc(CCc2ccccc2)no1 | 1000 to 10000 nM
CC(=O)Nc1cc(-c2c(-c3ccccc3)c3cc(Cl)ccc3[nH]c2=O)on1 | 1000 to 10000 nM

SMILES | IC50
Cc1cc(-c2c(-c3cccnc3)c3cc(Cl)ccc3[nH]c2=O)on1 | 1000 to 10000 nM
Cc1cc(-c2c(-c3ccccn3)c3cc(Cl)ccc3[nH]c2=O)on1 | 1000 to 10000 nM
Cc1cc(-c2c(-c3cc4ccccc4o3)c3cc(Cl)ccc3[nH]c2=O)on1 | 1000 to 10000 nM
Cc1cc(-c2c(-c3ccc4ccccc4c3)c3cc(Cl)ccc3[nH]c2=O)on1 | 1000 to 10000 nM
O=c1[nH]c2ccc(Cl)cc2c(-c2ccccc2)c1-c1cncc(Br)c1 | 1000 to 10000 nM
O=c1[nH]c2ccc(Cl)cc2c(-c2ccccc2)c1-c1ccccn1 | 1000 to 10000 nM
O=c1[nH]c2ccc(Cl)cc2c(-c2ccccc2)c1-c1nc2ccccc2[nH]1 | 1000 to 10000 nM
O=c1[nH]c2ccc(Cl)cc2c(-c2ccccc2)c1-c1cccnc1 | 1000 to 10000 nM
Cc1cc(-c2c(-c3ccccc3)c3cc(O)ccc3[nH]c2=O)on1 | 1000 to 10000 nM
Cc1cc(-c2c(-c3ccccc3)c3cc(C(O)CO)ccc3[nH]c2=O)on1 (stereo not shown) | > 10000 nM
Cc1cc(-c2c(-c3ccccc3)c3ccc(Cl)cc3[nH]c2=O)on1 | > 10000 nM
CCOC(=O)c1cccc(-c2c(-c3ccccc3)c3cc(Cl)ccc3[nH]c2=O)c1 | > 10000 nM
Cc1cc(-c2c(-c3ccccc3)c3cccc(Cl)c3[nH]c2=O)on1 | > 10000 nM
O=c1[nH]c2ccc(Cl)cc2c(-c2ccccc2)c1-c1nnn[nH]1 | > 10000 nM
Cc1cc(-c2c(-c3ccccc3)c3cc(CO)ccc3[nH]c2=O)on1 | > 10000 nM
Cc1cc(-c2c(-c3ccccc3)c3cc(C(=O)O)ccc3[nH]c2=O)on1 | 1000 to 10000 nM
O=c1[nH]c2ccc(Cl)cc2c(-c2ccccc2)c1-c1cn(Cc2ccccc2)nn1 | 500 to 1000 nM
CC(C)Cc1coc(-c2c(-c3ccccc3)c3cc(Cl)ccc3[nH]c2=O)n1 | > 10000 nM
